Results published in ChEMBL document CHEMBL3872259, “Synthesis, characterization, and in vitro SAR evaluation of N,N'-bis(arylmethyl)-C2-alkyl substituted imidazolium salts” (Bioorg Med Chem Lett, 2017).
pIC50: −log10 of the molar value. Each block holds one molecule with its values, some of them ahead of it.

Columns and labels:
[1] = Antiproliferative activity against human NCI-H460 cells assessed as reduction in cell viability measured after 72 hrs by MTT assay; format: functional, cell-based; settings: NCI-H460, 72 h
[2] = Antiproliferative activity against human NCI-H1975 cells assessed as reduction in cell viability measured after 72 hrs by MTT assay; format: functional, cell-based; settings: NCI-H1975, 72 h
[3] = Antiproliferative activity against human HCC827 cells assessed as reduction in cell viability measured after 72 hrs by MTT assay; format: functional, cell-based; settings: HCC827, 72 h
[4] = Antiproliferative activity against human A549 cells assessed as reduction in cell viability measured after 72 hrs by MTT assay; format: functional, cell-based; settings: A549, 72 h
[5] = Aqueous solubility of the compound; format: physicochemical; settings: buffer
[6] = Antiproliferative activity against human HOP62 cells assessed as cell growth at 10 uM measured after 48 hrs by sulforhodamine B assay relative to control; format: functional; settings: HOP-62, 48 h, read-out: Activity
[7] = Antiproliferative activity against human EKVX cells assessed as cell growth at 10 uM measured after 48 hrs by sulforhodamine B assay relative to control; format: functional; settings: read-out: Activity
[8] = Antiproliferative activity against human A549/ATCC cells assessed as cell growth at 10 uM measured after 48 hrs by sulforhodamine B assay relative to control; format: functional; settings: A549, 48 h, read-out: Activity
[9] = Antiproliferative activity against human HOP92 cells assessed as cell growth at 10 uM measured after 48 hrs by sulforhodamine B assay relative to control; format: functional; settings: HOP-92, 48 h, read-out: Activity
[10] = Antiproliferative activity against human NCI-H226 cells assessed as cell growth at 10 uM measured after 48 hrs by sulforhodamine B assay relative to control; format: functional; settings: NCI-H226, 48 h, read-out: Activity
[11] = Antiproliferative activity against human NCI-H23 cells assessed as cell growth at 10 uM measured after 48 hrs by sulforhodamine B assay relative to control; format: functional; settings: NCI-H23, 48 h, read-out: Activity
[12] = Antiproliferative activity against human NCI-H322M cells assessed as cell growth at 10 uM measured after 48 hrs by sulforhodamine B assay relative to control; format: functional; settings: read-out: Activity
[13] = Antiproliferative activity against human NCI-H460 cells assessed as cell growth at 10 uM measured after 48 hrs by sulforhodamine B assay relative to control; format: functional; settings: NCI-H460, 48 h, read-out: Activity
[14] = Antiproliferative activity against human NCI-H522 cells assessed as cell growth at 10 uM measured after 48 hrs by sulforhodamine B assay relative to control; format: functional; settings: NCI-H522, 48 h, read-out: Activity
[15] = Growth inhibition of human EKVX cells measured after 48 hrs by sulforhodamine B assay; format: functional
[16] = Growth inhibition of human HOP62 cells measured after 48 hrs by sulforhodamine B assay; format: functional; settings: HOP-62, 48 h
[17] = Growth inhibition of human HOP92 cells measured after 48 hrs by sulforhodamine B assay; format: functional; settings: HOP-92, 48 h
[18] = Growth inhibition of human NCI-H226 cells measured after 48 hrs by sulforhodamine B assay; format: functional; settings: NCI-H226, 48 h
[19] = Growth inhibition of human NCI-H23 cells measured after 48 hrs by sulforhodamine B assay; format: functional; settings: NCI-H23, 48 h; for CC50: read-out: LC50 (the source's name)
[20] = Growth inhibition of human NCI-H322M cells measured after 48 hrs by sulforhodamine B assay; format: functional; settings: for CC50: read-out: LC50 (the source's name)
[21] = Growth inhibition of human NCI-H522 cells measured after 48 hrs by sulforhodamine B assay; format: functional; settings: NCI-H522, 48 h
[22] = read-out: LC50 (the source's name)

solubility [5]: > 10 mM
SMILES: CCCCc1n(Cc2ccc3ccccc3n2)cc[n+]1Cc1ccc2ccccc2c1.[Cl-]
pIC50 [1]: 5.52
pIC50 [2]: 5.70
pIC50 [3]: 5.22
pIC50 [4]: 5.52

solubility [5]: > 10 mM
SMILES: CCc1n(Cc2ccc3ccccc3c2)cc[n+]1Cc1ccc2ccccc2n1.[Cl-]
pIC50 [2]: > 6.00
pIC50 [3]: 5.70

SMILES: Cc1n(Cc2ccc3ccccc3n2)cc[n+]1Cc1ccc2ccccc2n1.[Cl-]
growth at 10 µM [6]: 90.5%
growth at 10 µM [7]: 80.7%
growth at 10 µM [8]: 88.6%
pIC50 [1]: 5.10
pIC50 [2]: 5.70
pIC50 [3]: 4.89
pIC50 [4]: 4.82
solubility [5]: > 80 mM
growth at 10 µM [9]: 74.5%
growth at 10 µM [10]: 88.1%
growth at 10 µM [11]: 69.8%
growth at 10 µM [12]: 103%
growth at 10 µM [13]: 95%
growth at 10 µM [14]: 35.9%

SMILES: [Br-].c1ccc(-c2n(Cc3ccc4ccccc4c3)cc[n+]2Cc2ccc3ccccc3c2)cc1
growth at 10 µM [6]: -44.8%
growth at 10 µM [7]: 3.5%
growth at 10 µM [8]: 12.5%
GI50 [1]: 1370 nM
pIC50 [1]: 5.52
TGI [1]: 2.87 µM
pIC50 [2]: 5.70
pIC50 [3]: 5.70
GI50 [4]: 1.78 µM
pIC50 [4]: 5.40
TGI [4]: 3.52 µM
solubility [5]: < 0.5 mM
growth at 10 µM [9]: -69.7%
growth at 10 µM [10]: -9.03%
growth at 10 µM [11]: -38.7%
growth at 10 µM [12]: 8.84%
growth at 10 µM [13]: -78.4%
GI50 [15]: 1580 nM
TGI [15]: 3.43 µM
GI50 [16]: 1460 nM
TGI [16]: 3.23 µM
GI50 [17]: 602 nM
TGI [17]: 2280 nM
GI50 [18]: 1260 nM
TGI [18]: 2.97 µM
GI50 [19]: 775 nM
TGI [19]: 2.35 µM
CC50 [19]: 6.14 µM
GI50 [20]: 1.42 µM
TGI [20]: 2.82 µM
CC50 [20]: 5.61 µM
GI50 [21]: 1070 nM
TGI [21]: 2580 nM

SMILES: OCc1n(Cc2ccc3ccccc3c2)cc[n+]1Cc1ccc2ccccc2c1.[Br-]
growth at 10 µM [6]: 75%
growth at 10 µM [7]: 83.3%
growth at 10 µM [8]: 68.6%
pIC50 [1]: 4.85
pIC50 [2]: 5.15
pIC50 [3]: 4.92
pIC50 [4]: < 4.52
solubility [5]: < 0.5 mM
growth at 10 µM [9]: -2.81%
growth at 10 µM [10]: 61.6%
growth at 10 µM [11]: 67.7%
growth at 10 µM [12]: 78.9%
growth at 10 µM [13]: 53.1%

SMILES: c1ccc2cc(Cn3cc[n+](Cc4ccc5ccccc5c4)c3)ccc2c1
growth at 10 µM [6]: 42.1%
growth at 10 µM [7]: 51.6%
growth at 10 µM [8]: 67.6%
GI50 [1]: 1270 nM
pIC50 [1]: 5.40
TGI [1]: 10.4 µM
CC50 [1, 22]: 42 µM
pIC50 [2]: 5.22
pIC50 [3]: 5.05
GI50 [4]: 7.97 µM
LC50 [4]: 55.3 µM
TGI [4]: 22.9 µM
growth at 10 µM [9]: -13.3%
growth at 10 µM [10]: 52.1%
growth at 10 µM [11]: 41.6%
growth at 10 µM [12]: 62.8%
growth at 10 µM [13]: 39.6%
growth at 10 µM [14]: -11.7%
GI50 [15]: 2510 nM
TGI [15]: 15.5 µM
CC50 [15, 22]: 4.75 µM
GI50 [16]: 3260 nM
TGI [16]: 17 µM
CC50 [16, 22]: 45.9 µM
GI50 [17]: 160 nM
TGI [17]: 1390 nM
CC50 [17, 22]: 15.2 µM
GI50 [18]: 1720 nM
TGI [18]: 14.3 µM
CC50 [18, 22]: 71.9 µM
GI50 [19]: 901 nM
TGI [19]: 10.1 µM
CC50 [19]: 39.4 µM
GI50 [20]: 8.4 µM
TGI [20]: 21.3 µM
CC50 [20]: 47.3 µM
GI50 [21]: 393 nM
LC50 (50% lethal concentration) [21]: 26.8 µM
TGI [21]: 3110 nM
